# Data from patent US20250206704A1, “ENGINEERED IONOPHORES FOR TRANSPORT OF METAL IONS” (The Brigham and Women's Hospital, Inc., priority 2022, published 2025).
# “Also recorded” adds a separate entry of the source. Read-outs that look alike come from different tables or passages of the source.
# Assays:
# U2OS cells [1] = test: ICP-MS analysis of intracellular Zn(II) in U2OS cells; format: cell-based; details: 10 μM Zn(II) and 5 μM compound, 1 hour
# Method: Next, Applicants used inductively coupled plasma mass spectrometry (ICP-MS) to validate the imaging assay and the ionophores activity (FIG. 1F). While the intracellular Zn^II levels where similar between DMSO and chelator 1, Zn^II concentrations inside cells were 3-fold higher when Applicants co-treated ionophores 8 and 9.
# U2OS cells (˜200,000) were plated in a 6-well dish. After a day, the medium was aspirated, and Zn(II) (10 μM) and compounds (5 μM) containing media (2 mL) were added to each appropriate well. Cells were harvested by first washing each well with PBS containing EDTA (100 μM, 2×2.0 mL) and subsequently adding Milli-Q water ([…] to each well and incubating for 2-4 min. A portion of the resulting cell lysate (900 μL) was collected and transferred to an Eppendorf Safe-Lock tube, snap-frozen in N2(l), and then thawed at room temperature (RT) for a total of three freeze-thaw cycles. The insoluble lysate was pelleted (10 min at 10,000 g), and the soluble protein concentration of each sample was determined using the Pierce 660 nm Protein Assay in a 96-well plate (200 μL of reagent, 14 μL of sample, bovine serum albumin standard curve). Samples were then frozen and lyophilized overnight, and the resulting white, flaky solid was taken up in concentrated nitric acid (200 μL, ultrapure for trace metal analysis, BDH Aristar) and heated at 70° C. for 1 h. A portion of each sample (142 μL) was then diluted with water (2 mL) and a terbium internal standard (Agilent 5190-8590; stock at 10,000 parts per billion [ppb] in 10% nitric acid diluted to 100 ppb in Milli-Q water for addition to samples, 2 ppb final concentration), after which the metal content of the samples was assessed by ICP-MS. […] Therefore, 1 ppb was taken to be equal to 1 μg/L, and the molarity of a particular solution was considered equal to the measured concentration of a particular ion in ppb, divided by the molecular weight of the ion, multiplied by 10-6.
# [2] = UV/Vis titration, stability constant (logK) with ZnCl2; format: physicochemical; details: UV/Vis titration with ZnCl2, TitrationFit
# From the text: Applicants validated the design principles by confirming that the silyl group lowered the binding affinity and shielded the hydrophilic pocket. […] [17] […] Applicants confirmed that all compounds bound Zn^II with 1:1 stoichiometry (FIG. 12). […] Applicants superimposed the X-ray structure of the TIPS-containing Zn^II:9 complex with the literature precedented Zn^II:1 and observed significant structural distortion in the Zn^II:9 complex, which could explain the lower logK.
# A solution of ligand was prepared in acetonitrile. The starting concentration was chosen to be around 0.10 mM, based on the absorption maximum of the compound. This solution (2.5 mL) was pipetted into a quartz cuvette with a 1-cm optical path length. The titration was performed by the stepwise addition of a 10-mM ZnC12 solution in acetonitrile. The absorption spectra were measured over the range of 250-800 nm. The calculation of the stability constants was accomplished using TitrationFit.1
# [3] = test system: Staphylococcus epidermidis; test: MIC, broth microdilution; format: cell-based
# From the text: (§1) Next, Applicants evaluated the antibacterial activities of the ionophores. First, Applicants determined their minimum inhibitory concentration (MIC) in the gram-positive bacterium that causes hospital-acquired infections, Staphylococcus epidermidis.
# (§2) Applicants reasoned that limiting extracellular zinc with EDTA would abolish ionophore activity by depleting the available metal ions for membrane transport. […] [24]
# (§3) Staphylococcus epidermidis ATCC® 12228™, Staphylococcus caprae ATCC® 51549™, Bacillus subtilis ATCC® 6051™, and Bacillus cereus ATCC® 14579™ were grown in cation-adjusted Mueller-Hinton broth (CA-MHB) (catalog no. 90922, Sigma) as per the Clinical and Laboratory Standards Institute guidelines.2 Bacteria were routinely grown at 37° C. under aerobic conditions.
# (§4) The MIC assay was performed according to the Clinical and Laboratory Standards Institute protocols.^3 The antibacterial activities of the compounds were measured using the broth microdilution method. Serial dilutions of compounds were prepared in cation-adjusted Müller Hinton Broth. Each dilution (100 μL) was dispensed to each well of a round-bottom plate to obtain final concentrations ranging from 0.07815-40 μM. Bacteria were grown at 37° C. overnight on cation-adjusted Müller Hinton Broth. The bacterial solution was prepared in 0.9% saline and adjusted to obtain an OD600=0.1 using a SpectraMax M5 (Molecular Devices). The resultant suspension was diluted 1:20 with cation-adjusted Müller Hinton Broth. The resulting mixture (10 μL) was added to each well of the plates (approximately 5×10^4 CFU/well), mixed, and incubated at 37° C. for 24 h. The MIC value was determined as the minimum concentration that inhibited the growth of bacteria.
# U2OS cells [4] = test: Zinc imaging assay (DA-ZP1 fluorescence) of ionophore activity in U2OS cells; format: cell-based; details: U2OS cells; for ionophore activity (DA-ZP1 fluorescence): 10 μM Zn(II) and 5 μM compound; for ionophore activity (Zn^II transport, DA-ZP1 fluorescence): 10 μM Zn(II) and 10 μM compound, 1 hour, then DA-ZP1; for concentration at which ionophore activity is displayed: DA-ZP1, comparison with known ionophores
# From the text: A number of bispicolyl-based Zn^II-chelators were synthesized with increasing size at the ortho-position of phenolic OH by a one-step reductive amination between bispicolyl-amine and commercially available 3-substituted salicylaldehydes. Applicants examined the ionophore activity of bispicolyl analogs with methyl (Me, 2), isopropyl (iPr, 3), and tert-butyl (tBu, 4) substitutions (FIG. 1A). […] [13] The cells were first treated with ZnCl2 and ionophore candidates followed by DA-ZP1 treatment and fluorescence measurement.
# Applicants experimentally determined the ionophore activity of these silyl-based compounds using the aforementioned DAZ-P1 assay in U2OS cells.
# Applicants also determined metal-ion interference of the silyl-based ionophores with focused efforts on 8. Applicants designed a competition assay wherein Applicants pre-treated equimolar amounts of various metal ions, Mg^II, Ca^II, Mn^II, Fe^II, and Na^I, with 10 μM of Zn^II for 1 hour before treatment with DA-ZP1.
# Finally, Applicants compared the activity of the designed compounds against known ionophores (FIGS. 2 and 11). […] [16]
# In a 96-well plate, 20,000 U2OS cells were plated per well and cultured for 24 h in the incubator set to 37° C. with 5% CO2. […] The medium containing the compound was removed, and the cells were washed with 3×100 μL of fresh medium, and finally another 100 μL of 2 μM of DA-ZP1 was added to the corresponding cell culture medium containing HCS NuclearMask Blue Stain. The cells were again kept for 1 h in the incubator. The medium containing compound was removed, and the cells were washed with 1×100 μL of PBS and 2×100 μL of fresh medium, and finally, another 100 μL of fresh, dye-free medium was added. The cells were immediately imaged using a high-content fluorescence microscope (Operetta Phenix) in both the DAPI and FITC channels at 20× magnification. Images were analyzed using the Harmony software, and data were plotted using GraphPad Prism 9.
# U2OS cells [5] = test: U2OS cell viability assay (CellTiter-Glo); format: cell-based; details: Homo sapiens, 48 h, read-out: U2OS EC50 + 5 μM Zn^II
# Method: as §2
# U2OS cells were seeded in black 384-well plates at a density of 3,000 cells per well in 25 μL of medium per well. After seeding, the cells were left to adhere overnight. The compounds to be tested were added to the designated culture plates in 25 μL of medium in triplicate with a normalized DMSO concentration (0.05%) in all treatments, and the plates were placed at 37° C. in a humidified atmosphere containing 5% CO2. After 48 h, 40 μl of CellTiter-Glo (Promega) was added to each well and incubated for 30 min, after which the plate luminescence was analyzed in a PerkinElmer EnVision Manager 1.13 (PerkinElmer). The average growth of treated cells was calculated by correcting the values for background luminescence and was subsequently normalized to the average of the two lowest treatments of the compound in question. Data were plotted and fitted to a dose-response curve using GraphPad Prism 9.
# bacteria vs U2OS cells = test: Antibacterial selectivity (average molar MIC in bacteria vs EC50 in U2OS cells); format: cell-based
# Bacillus subtilis = test: MIC, broth microdilution; format: cell-based; details: read-out: Strain MIC B. subtilis
# Method: as §1, §3, §4
# Staphylococcus caprae = test: MIC, broth microdilution; format: cell-based; details: read-out: Strain MIC S. caprae
# Method: as §1, §3, §4
# Bacillus cereus = test: MIC, broth microdilution; format: cell-based; details: read-out: Strain MIC B. cereus
# Method: as §1, §3, §4
# [6] = test system: S. epidermidis, S. caprae, B. subtilis, B. cereus; test: Average MIC over the four gram-positive strains; format: cell-based
# Method: as §1, §4
# [7] = value quoted for comparison; cited from earlier work
compound,measurement,setting,value
"Oc1ccccc1CN(Cc1ccccn1)Cc1ccccn1 [Compound 1, 2-((bis(pyridin-2-ylmethyl)amino)methyl)phenol]",intracellular Zn^II level relative to DMSO,U2OS cells [1],similar
same,logK (Zn^II binding),[2],12.5
"CC[C@@H](C(=O)O)[C@@H]1O[C@@H]([C@@H](C)[C@H](O)[C@H](C)C(=O)[C@H](CC)[C@H]2O[C@]3(C=C[C@@H](O)[C@]4(CC[C@@](C)([C@H]5CC[C@](O)(CC)[C@H](C)O5)O4)O3)[C@H](C)C[C@@H]2C)[C@@H](C)C[C@@H]1C [narasin, reference compound]",MIC,[3]; read-out: MIC,0.96 µg/mL
"C[C@H](CCC(=O)O)C[C@H](C)C[C@H](C)C(=O)/C=C(\O)[C@H](C)C[C@H](C)C/C=C/[C@@H](C)[C@@H](O)[C@@H](C)[C@@H](O)C[C@@H]1CC[C@@](C)([C@H]2CC[C@@](C)([C@@H](C)O)O2)O1 [ionomycin, reference compound]",MIC,[3],15 µg/mL
"C[Si](C)(C)c1cccc(CN(Cc2ccccn2)Cc2ccccn2)c1O [Compound 6, 2-((bis(pyridin-2-ylmethyl)amino)methyl)-6-(trimethylsilyl)phenol]",MIC,[3]; read-out: MIC,~7.5 µg/mL
same,ionophore activity (DA-ZP1 fluorescence),U2OS cells [4],elicited detectable fluorescence
"CC(C)(C)[Si](c1ccccc1)(c1ccccc1)c1cccc(CN(Cc2ccccn2)Cc2ccccn2)c1O [Compound 10, 2-((bis(pyridin-2-ylmethyl)amino)methyl)-6-(tert-butyldiphenylsilyl)phenol]",MIC,[3]; read-out: MIC,~5.4 µg/mL
same,ionophore activity (DA-ZP1 fluorescence),U2OS cells [4],decreased the activity
"CC(C)(C)c1ccc(O)c(CN(Cc2ccccn2)Cc2ccccn2)c1 [Compound 5, 2-((bis(pyridin-2-ylmethyl)amino)methyl)-4-(tert-butyl)phenol]",antibacterial activity,[3]; control compound,no ionophore activity in U2OS cells or antibacterial activity
same,"ionophore activity (Zn^II transport, DA-ZP1 fluorescence)",U2OS cells [4],poor ionophore activity; also recorded: no ionophore activity
"CC[Si](CC)(CC)c1cccc(CN(Cc2ccccn2)Cc2ccccn2)c1O [Compound 7, 2-((bis(pyridin-2-ylmethyl)amino)methyl)-6-(triethylsilyl)phenol]",MIC,[3]; read-out: MIC,~8.4 µg/mL
"[O-][n+]1ccccc1S [Pyrithione, pyrithione, reference compound]",CC50,U2OS cells [5],990 nM
same,MIC,[3],1.3 µg/mL
same,MIC,[3]; read-out: Strain MIC S. epidermidis,1.3 µg/mL
same,concentration at which ionophore activity is displayed,U2OS cells [4],5 µM
same,antibacterial selectivity,bacteria vs U2OS cells,0.11 times
same,selective toxicity to bacterial cells over mammalian cells,bacteria vs U2OS cells,0.1 fold
same,antibacterial selectivity,"bacteria vs U2OS cells; ratio of average molar MIC and U2OS EC50, Table 4",0.11
same,MIC,Bacillus subtilis,1.3 µg/mL
same,MIC,Staphylococcus caprae,0.6 µg/mL
same,MIC,Bacillus cereus,1.3 µg/mL
same,MIC,[6]; read-out: Average MIC,1.1 µg/mL
same,MIC,"[6]; read-out: Average MIC (molar, in brackets)",8.7 µM
same,MIC,[6]; read-out: average MIC,1.1 µg/mL
"CNc1ccc2oc(C[C@H]3O[C@@]4(CC[C@H]3C)O[C@H]([C@H](C)C(=O)c3ccc[nH]3)[C@H](C)C[C@H]4C)nc2c1C(=O)O [calcimycin, reference compound]",MIC,[3],~0.16 µg/mL
"CC(C)(C)n1ccn([BH-](n2ccn(C(C)(C)C)c2=S)n2ccn(C(C)(C)C)c2=S)c1=S.[K+] [potassium hydrotris(N-tert-butyl-2-thioimidazolyl) borate, reference compound]",concentration at which ionophore activity is displayed,U2OS cells [4],5 µM
"c1ccc(CN(CCN(Cc2ccccn2)Cc2ccccn2)Cc2ccccn2)nc1 [TPEN, reference compound]",logK (Zn^II binding) of known chelator/ionophore,[7],15.5
"CC[C@@H](C(=O)[C@@H](C)[C@@H](O)[C@H](C)[C@@H]1O[C@@H]([C@@H](CC)C(=O)O)CC[C@@H]1C)[C@H]1O[C@]2(C=C[C@@H](O)[C@]3(CC[C@@](C)([C@H]4CC[C@](O)(CC)[C@H](C)O4)O3)O2)[C@H](C)C[C@@H]1C [salinomycin, reference compound]",MIC,[3],1.88 µg/mL
"CC(C)(C)c1cccc(CN(Cc2ccccn2)Cc2ccccn2)c1O [Compound 4, 2-((bis(pyridin-2-ylmethyl)amino)methyl)-6-(tert-butyl)phenol]",MIC,[3]; read-out: MIC,7.2 µg/mL
same,"ionophore activity (Zn^II transport, DA-ZP1 fluorescence)",U2OS cells [4],efficiently transported Zn^II
